The text below walks through data of US11911404B2, “Fucosylation and immune surveillance in melanoma” (H. LEE MOFFITT CANCER CENTER AND RESEARCH INSTITUTE, INC., priority 2017, dated 2024).

For test [1], the system named is SW1 mouse melanoma. The experiment in a line: SW1 tumor growth in mice fed ±L-fucose and treated with anti-CTLA4 or anti-PD1. The settings on record: SW1/C3H/HeJ model, oral 100 mM L-fucose from day 14; antibodies 20 mg/kg twice weekly. The class given is in vivo. The protocol:
SW1 tumor growth curves in mice fed±100 mM L-fucose treated with either control (PBS) or […] (17A) or α-PD1 (17B). Combinations are color-coded as indicated. N=8 mice per condition. L-fucose was administered in the water starting on day 14 (refreshed twice weekly); α-CTLA4 or α-PD1 was administered (20 mg/kg each) twice weekly starting day 14. Compared with PBS control: #: p<0.001; *: p<0.05:
(§1) Fucosylation of HLA-DRB1 occurs on amino acid N48 (mutation to G abolishes interaction with fucose-binding AAL lectin) (FIG. 16A). Increasing fucosylation (L-fucose treatment) promotes cell surface abundance of HLA-DRB1 (which is expected to increase CD4^+ T cell activation) (FIG. 16B). […] A lectin-mediated proximity ligation technique was developed to visualize fucosylated HLA-DRB1 in cells and tissues (FIG. 18).

Test [2] has as its system 1205Lu melanoma cells. The experiment in a line: LDH-release cytotoxicity assay, NK cell co-culture with pre-treated melanoma cells. Type of test: cell-based, human. The settings on record: 1205Lu cells pre-treated with 250 μM, 8 h co-culture. On the procedure:
After 8 h, LDH levels released in the media were measured. *=p 0.02; •=p<0.001. FIGS. 5C and 5D show Immunoblot analysis using AAL lectin (another fucose-binding lectin) was performed to confirm the effects of FUTi (C) or L-fucose (D) on 1205Lu cells (96 h treatment). (•: p-value≥0.02)(*: p-value≥0.002).
The possibility that tumor fucosylation can directly activate the tumor cell-killing activity of NK cells was explored. To assay for this possibility, a lactate dehydrogenase (LDH)-release-based assay was used in which the fucosylation of LU1205 melanoma cells was modulated prior to co-culture with NK cells. Specifically, primary NK cells isolates (5A) or immortalized NK92 cell line (5B) were co-cultured with 1205Lu melanoma cells that were pre-treated with DMSO, 250 μM pan-fucosyltransferase inhibitor (FUTi), or 250 μM L-fucose for 8 hours. Non-radioactive LDH-release cytotoxicity assay was performed to measure extent of NK cell-mediated killing. […] (•: p-value≥0.02) (*: p-value≥0.002).

In test [3] the test system is SW1 mouse melanoma tumors. The test can be described thus: Flow cytometric analysis of tumor-infiltrating lymphocytes in SW1 tumors. The class given is in vivo. The settings on record: L-fucose treatment, CD4+ T cell-depleted mice (FIG. 4D).
The test system of test [4] is melanoma tumors. The test can be described thus: Immunofluorescent staining of tumors for immune cell infiltration (CD45, DX5). The settings on record: for infiltration of tumors by CD45+ immune cells (leukocytes) and NK cells: dietary fucose supplementation. Type of test: in vivo, mouse. The protocol: (§2) To determine whether dietary or genetic modulation of fucosylation affects tumor growth and metastasis, we previously studied a mouse melanoma model in which tumor fucosylation was increased either by dietary supplementation (FIG. 2A) with 100 mM fucose or by overexpressing mouse FUK (FIG. 2B). […] To determine whether fucosylation affects tumor infiltration by immune cells, Immunofluorescent staining analysis of CD45 (general leukocyte marker, red) and DAPI (blue) was performed (FIG. 2C). To determine whether fucosylation affects tumor infiltration by NK cells, immunofluorescent staining analysis for DX5 (an NK cell marker, red) and DAPI (blue) was performed (FIG. 2D). Both NK cells and CD4+ T cells were elevated in samples from fucose supplemented mice.

Test [5] concerns SW1 mouse melanoma. The experiment in a line: Growth of control, H2K1- or IEβ-knocked down SW1 tumors in mice fed ±100 mM L-fucose water. Type of test: in vivo.
Excerpt: N=7 mice/condition. •:p<0.01. […] (*initiate L-fucose).
as §1

For test [6], the system named is SW1 mouse melanoma tumors. The experiment in a line: Flow cytometric analysis of tumor-infiltrating lymphocytes in SW1 tumors. The class given is in vivo. The settings on record: for tumor-infiltrating CD4+ and CD8+ T cells: dietary fucose vs control diet. On the procedure: (§3) To determine which immune cell populations were affected by L-fucose, another mouse melanoma model treated with control or L-fucose-supplemented water was used. First, 1.25×10^6 SW1 mouse melanoma cells were injected into the back right flanks of the mice and allowed the tumors to grow to 150 mm^3. At 150 mm^3 (14 days), 100 mM L-fucose was administered via the drinking water to half of the mice. Tumor growth was monitored (FIGS. 3A and 3B). Total and specific subpopulations of tumor-infiltrating lymphocytes were assessed by cell flow cytometric analysis (FIGS. 3C and 3D). Assessed populations included F4/80 (macrophage)-, Gr-1 (MDSCs)-, Cd11c (Dendritic cells)-, and DX5 (NK cells)-positive cells. For T-cells, we probed for CD3 (general T-cell marker) and further for CD4 and CD8 (for those T cell subpopulations). Of the CD4-positive cells, CD25 positive cells was used to elucidate the T regulatory cells. […] Both CD4 and CD8 positive T cells (CD3+ cells) increased in response to fucose. However, myeloid derived suppressor cells (MDSCs) decreased in response to dietary fucose supplementation.
This SW1 melanoma tumor/C3H mouse isogenic model was recapitulated to profile—in detail—tumor-infiltrating immune populations. >65% reduced tumor growth was observed during dietary L-fucose supplementation (FIG. 4A). […] Although most tumor-suppressive immune cell types were increased in the fucosylation-high, smaller tumors, tumor-infiltrating CD4+ and CD8+ T cells were most increased-doubled-in these tumors compared to control diet tumors (FIG. 4B, left and right). […] The presence and cytolytic activity of CD4+ T cells in tumors has been correlated with better patient survival rates and increased responsiveness to immunotherapies, respectively.
(In general: Flow cytometry measures light scatter and fluorescence of single cells or particles in a stream.)

The subject of test [7] is SW1 mouse melanoma cells. The experiment in a line: SW1 mouse melanoma tumor growth in C3H mice fed control or L-fucose water, with or without CD4+/CD8+ T cell depletion. Type of test: in vivo. The protocol: as §3
This SW1 melanoma tumor/C3H mouse isogenic model was recapitulated to profile—in detail—tumor-infiltrating immune populations. >65% reduced tumor growth was observed during dietary L-fucose supplementation (FIG. 4A). […]

The subject of test [8] is mouse melanoma model. The test can be described thus: Mouse melanoma model, dietary fucose supplementation: tumor growth and metastasis. The class given is in vivo. The protocol:
as §2

Test [9] relates to HLA-DRB1. The test can be described thus: Flow cytometry of cell surface presentation, normalized to PKH26. Type of test: cell-based, human. The settings on record: WM793 cells, L-fucose treatment (FIG. 16B). The protocol:
[…] Stained cells were subjected to flow cytometric analyses and quantitation of protein signal/PKH26 signal to quantitate protein per relatice surface area.
FIGS. 16A and 16B show HLA-DRB1 is fucosylated on N48, and fucosylation promotes its cell surface presentation. […] AAL or HLA-DRB1 signals were normalized to PKH26 (total membrane stain).
To determine molecular mechanisms underlying the effects of fucosylation, a click-chemistry-based proteomic screen was performed to identify all fucosylated proteins in melanoma cells. 2 fucosylated immunomodulatory proteins, HLA-A and HLA-DRB1, were identified in melanoma cells. Fucose-binding lectin pulldown and immunoblot analysis confirmed the i) the expression and ii) the fucosylation of these 2 HLA proteins in melanoma cells, and further, indicate that their fucosylation is reduced when comparing patient-matched primary vs. metastatic cell lines (FIGS. 6A & 6C). The proximity ligation analysis technique, a cutting edge technique conventionally implemented to visualize 2 directly interacting proteins or post-translationally modified species of specific proteins when antibodies for the modifications are available (e.g., phosphorylated Tyr using an anti-phospho-Tyr antibody). […]

The subject of test [10] is RPS3. The test can be described thus: RPS3 fucosylation by lectin pull-down after cellular stressors. Type of test: cell-based, human. The settings on record: melanoma cells treated 24-48 h, lectin PD (FIG. 12). An excerpt: Specifically, (11A) RPS3 level in increased in melanoma cells relative to primary melanocytes (HEMN, human epidermal melanocytes). (11B) RPS3 is increased in melanoma through progression in human samples by TMA. TMA stained and analyzed by AQUA at Moffitt Cancer Center Department of Clinical Testing Development Core Facility. (11C) Nuclear RPS3 level increases with stage in matched primary and metastatic (MET) samples relative to HEMN cells (cell fractions analyzed by western blot [left]; cells analyzed by immunofluorescence [right]). (11D) Expression of RPS3-mDDK in vertical growth phase cells confers behavior associated with metastatic disease. Increased anchorage-independent growth [left], increased motility [right]. It was noted that Fucosylated RPS3 level increases in response to cellular stressors. Melanoma cells treated for 24-48 h with serum deprivation (SD), thapsigargin (T, thap) or mutant BRAF-inhibitor (Plexxikon, PLX) and assayed for RPS3 fucosylation by lectin PD (FIG. 12).

Entries after “also recorded” stand apart in the source; their conditions may differ. Bounds are passed on as bounds.

As for `C[C@H](O)[C@@H](O)[C@@H](O)[C@H](O)C=O` [L-fucose], in test [1], the “suppression of melanoma growth compared with checkpoint antibodies” value is reported as “more significantly than anti-CTLA4 or anti-PD1 alone; also recorded: more tumor suppressive than α-CTLA4 or α-PD1 alone”. The “NK cell-mediated tumor-cell killing (LDH release), immortalized human NK cells” value in test [2] was “sufficient to induce the tumor-cell killing activity”. For the same molecule, the “NK cell-mediated tumor-cell killing (LDH release), primary human NK cells” value in [2] was “sufficient to induce the tumor-cell killing activity”. In test [3], the “numbers of intratumoral CD8+ T cells, CD11c+ dendritic cells and NK cells” value is listed as “reduced numbers”. Moreover, the “infiltration of tumors by CD45+ immune cells (leukocytes) and NK cells” value in test [4] was “significant increases”; in test [4] (listed as fucose), “increased”. The “NK cells and CD4+ T cells in tumor samples” value in [4] (fucose supplemented mice, immunofluorescence (FIGS. 2C, 2D)) is reported as “elevated”. Besides, in test [5] (shH2K1, ±100 mM L-fucose water), the “difference in ±L-fuc tumor growth curves in H2K1 knocked-down tumors” value was “not significant”. In [5] (shIEβ vs control shRNA (SCR), ±100 mM L-fucose water), the “L-fucose-triggered tumor suppression in IEβ (HLA-DRB1 ortholog) knocked-down tumors” value was “abrogates; also recorded: not significant”. Besides, the “increase of NK cells, T cells (CD4+ and CD8+), dendritic cells and macrophage” value in test [6] (administration of fucose) is listed as 10-50 fold. Besides, the “overall immune infiltration of tumors” value in test [6] (dietary fucose supplementation, 100 mM in drinking water) was “increases”. For the same molecule, the “myeloid derived suppressor cells (MDSCs) in tumors” value in [6] (dietary fucose supplementation, listed as fucose) is “decrease”. Also, the figures for the “tumor-infiltrating CD4+ and CD8+ T cells” value in [6] and in test [6] (listed as fucose) were “doubled” and “increase”, respectively. In test [6] (tumors from L-fucose-supplemented mice), the “infiltrating immune cells per gram of tumor vs control diet” value is 10-50 fold. Also, the “L-fucose-triggered tumor suppression after loss of CD4+ T cells” value in test [7] (CD4+ T cell-immunodepleted mice (FIG. 4C left)) is listed as “abrogated tumor suppression”. This molecule also had a reduced tumor growth in [7] (SW1/C3H model, dietary 100 mM L-fucose in water, 45 days (FIG. 4A)) of more than 65%. In addition, in test [8] (L-fucose supplementation, earlier model), the “reduction in tumor growth” value is listed as more than 50%. For the same molecule, in test [8] (dietary L-fucose supplementation, mouse models), the “block of tumor growth and metastasis” value is more than 50%. In addition, the tumor suppression result in test [8] (dietary supplementation with 100 mM fucose (FIG. 2A)) is “increased tumor suppression”. In addition, the “cell surface abundance of HLA-DRB1” value in [9] was “promotes”.
Consider `C/C=C(/C)C(=O)O[C@H]1C(C)=C2[C@H]([C@@H]1OC(=O)CCCCCCC)[C@@](C)(OC(C)=O)C[C@H](OC(=O)CCC)[C@@]1(O)[C@H]2OC(=O)[C@@]1(C)O` [thapsigargin], for which the “fucosylated RPS3 level” value in [10] was “increases”.
